The test system of one data set is Pseudomonas aeruginosa. As to the kind of experiment: MIC by broth microdilution. Type of data set: cell-based. How it is done:
(§1) The 5 designed and synthesized peptides of the invention, plus omiganan (peptide of the state of the art) were evaluated for their antimicrobial capacity in microdilution assays for determining the minimum inhibitory concentration (MIC). A first panel of 8 representative strains was analyzed in these assays, encompassing Gram positive and Gram negative bacteria. […] The lowest MIC values indicate a higher antimicrobial potency.
(§2) Subsequently, an analysis of a panel of clinical isolates including strains with different resistance mechanisms against conventional antibiotics was carried out, all of which are of clinical relevance. […] In Table 3 the results for a panel of Gram negative bacteria are shown, and in Table 4 for a panel of […] bacteria. In these tables the detected gene/s responsible for the resistance against antibiotics for each strain, are included.
(§3) Antimicrobial activity was analyzed by means of the determination of the MIC (minimum inhibitory concentration) by the microdilution technique. The technique was carried out in the standard fashion according to (CLSI M07-A9 Vol. 32 No 2. January 2012). The peptide concentration range used was from 0.5 μg/mL to 512 μg/mL in two-fold serial dilutions. The used medium was MH Difco broth supplemented with cations, at a final concentration of Ca^++20-25 mg/L and Mg^++10-12.5 mg/L. The working inoculum used corresponds to a 1/100 dilution of a bacterial suspension equivalent to 0.5 in the Mc Farland scale.

In another data set the test system is S. cohnii. Type of data set: cell-based. How it is done: (§4) In vitro sensitivity assay of aerobically growing bacteria, using the disc diffusion method was performed according to the standards in the M2 document of the CLSI (Clinical and Laboratory Standards Institute: Performance Standards for Antimicrobial Disk Susceptibility Tests.) using the non-amidated peptides
(§5) In brief, intermediate solutions (10×) of the antimicrobial non-amidated peptides were prepared by serial dilutions 1:2, 1:4 and 1:8 by two-fold dilutions. Then, one part of the solution of the antimicrobial peptide 10× was added to nine parts of melted bacteriological agar. The antibiotic solution was added for each dilution, in the melted agar and cooled to 45-50° C. in a water bath. Then, the agar-antibiotic mixture was placed in a Petri dish until a 3-4 mm depth was reached. The inoculum is prepared with a turbidity of 0.5 in the McFarland scale (approximately 1-2 10^8 CFU/ml). The final inoculum required for the agar dilution test is 10^4 colony forming units (CFU) per “spot” having 5-8 mm in diameter. The inoculated plates must be incubated upside down at 35° C. for a period of 16-20 hs. MIC was recorded as the value of the lower dilution completely inhibiting bacterial development, without considering the development of a single colony or a slight film caused by the inoculum deposit. The final point in these cases will correspond to the concentration at which there is more than 80% reduction in growth as compared with the control.

A further data set relates to E. coli. The data set is classed as cell-based. How it is done:
as §4, §5

In the next data set the test system is S. aureus. Type of data set: cell-based. How it is done: as §4, §5
The next data set has as its system S. warnerii. The data set is classed as cell-based. As for the experimental part: as §4, §5
In the next data set the test system is K. pneumoniae. Type of data set: cell-based. How it is done:
as §4, §5

The next data set deals with P. aeruginosa. Type of data set: cell-based. How it is done: as §4, §5
For another data set, the system named is Escherichia coli. How it is done:
as §1, §2, §3

For another data set, the system named is Klebsiella pneumoniae. How it is done: as §1, §2, §3
The next data set concerns Staphylococcus warneri. How it is done:
as §1, §2, §3

For the next data set, the system named is Staphylococcus cohnii. As for the experimental part:
as §1, §2, §3

In another data set the test system is Staphylococcus aureus. Description: MIC by broth microdilution. The data set is classed as cell-based. As for the experimental part:
as §1, §2, §3

Another data set concerns human erythrocytes. As to the kind of experiment: Erythrocyte hemolysis assay (cytotoxicity). The data set is classed as cell-based. As to conditions: in words. As for the experimental part:
Subsequently, the capacity of the peptides of the invention for lysing human erythrocytes was evaluated, as a measure of their cytotoxicity (Table 2). The assays were carried out according to the Examples and are expressed as a percentage of total lysis obtained with either water or the surfactant Tween 20. In this assays, the lower hemolysis percentage, the lower expected cytotoxic activity.
Evaluation of cytotoxic activity was performed by means of an erythrocyte hemolysis assay (according to Pure Appl. Chem., Vol. 79, No. 4, pp. 717-728, 2007). In brief, from a volume of heparinized human whole blood, 3 times that volume of PBS is added and centrifuged 10 minutes at 1500 rpm, repeating the washing two more times. 10% blood solutions in PBS were prepared with that pellet. Subsequently, each group was added the corresponding peptide at the indicated concentration and incubated at 37° C. for 30 minutes. […]

Another data set concerns E. gallinarum. How it is done: as §2, §3
The next data set relates to S. haemolyticus. As for the experimental part: as §2, §3
The next data set concerns E. raffinosus. As for the experimental part: as §2, §3
A further data set deals with S. saprophyticus. How it is done:
as §2, §3

For a further data set, the system named is A. baumanii. How it is done:
as §2, §3

Read-outs that look alike come from different tables or passages of the source. Ends that are not written are not given here. Peptide text beside a SMILES is read from it.

Turning to `CC[C@H](C)[C@H](NC(=O)[C@H](CCCCN)NC(=O)[C@H](CCCNC(=N)N)NC(=O)[C@H](CC(N)=O)NC(=O)CNC(=O)[C@H](CCCNC(=N)N)NC(=O)[C@H](Cc1ccccc1)NC(=O)[C@@H](NC(=O)[C@H](CS)NC(=O)[C@H](Cc1c[nH]cn1)NC(=O)[C@H](CC(C)C)NC(=O)[C@@H]1CCCN1C(=O)[C@H](CCC(N)=O)NC(=O)[C@@H]1CCCN1C(=O)[C@@H](NC(=O)[C@H](CC(N)=O)NC(=O)[C@@H]1CCCN1C(=O)[C@H](CC(C)C)NC(=O)CNC(=O)[C@@H](NC(=O)CNC(=O)[C@H](CO)NC(=O)[C@H](CC(C)C)NC(=O)[C@H](CC(C)C)NC(=O)[C@H](CC(=O)O)NC(=O)[C@H](CS)NC(=O)[C@@H](NC(=O)[C@@H](N)[C@@H](C)O)[C@@H](C)O)C(C)C)C(C)C)C(C)C)C(=O)N[C@@H](CCCCN)C(=O)N[C@@H](Cc1c[nH]c2ccccc12)C(N)=O` [peptide 4] (H-TTCDLLSGVGLPNVPQPLHCVFRGNRKIKW-NH2), the MIC against Pseudomonas aeruginosa, in the data set with Escherichia coli, in the data set on Klebsiella pneumoniae, in the data set on Staphylococcus warneri and against Staphylococcus cohnii was over 256 µg/mL in each case. In addition, the “MIC in agar dilution” value with S. cohnii, against E. coli, in the data set with S. aureus, in the data set on S. warnerii, in the data set on K. pneumoniae and in the data set on P. aeruginosa was over 128 µg/mL each time.
With “FGKEKKAWWRRRKWLK-NH2 [peptide 3, FGKEKKAWWRRRKWLK]”, the minimal inhibitory concentration (MIC) in the data set on Pseudomonas aeruginosa was determined as 128 µg/mL; in the data set with Escherichia coli, 64 µg/mL; against Klebsiella pneumoniae, 128 µg/mL; against Staphylococcus warneri, 8 µg/mL; against Staphylococcus cohnii, 4 µg/mL. The “MIC in agar dilution” value was 32 µg/mL in the data set with S. cohnii; over 128 µg/mL in the data set on E. coli; over 128 µg/mL in the data set with S. aureus; 32 µg/mL with S. warnerii; over 128 µg/mL with K. pneumoniae; over 128 µg/mL against P. aeruginosa.
As to “RIVQRIKKWLLKWKKLGY-NH2 [peptide 5, RIVQRIKKWLLKWKKLGY]”, the MIC in the data set with Pseudomonas aeruginosa (P. aeruginosa M7525, resistance gene spm) was 64 µg/mL; with Pseudomonas aeruginosa (P. aeruginosa M7712, resistance gene spm), 64 µg/mL; against Pseudomonas aeruginosa (P. aeruginosa M7723, resistance gene kpc), 32 µg/mL; in the data set with Pseudomonas aeruginosa (P. aeruginosa M7728, resistance gene imp), 64 µg/mL; in the data set with Pseudomonas aeruginosa (P. aeruginosa M7907, resistance gene per) it was 64 µg/mL; against Staphylococcus aureus (S. aureus 28, resistance gene ermA) it was 64 µg/mL. In addition, the MIC in the data set with Staphylococcus aureus (S. aureus 33, resistance gene msrA) came to 64 µg/mL; with Staphylococcus aureus (S. aureus 204, resistance gene ermA), 32 µg/mL; in the data set with Staphylococcus aureus (S. aureus 239, resistance gene ermC) it was 64 µg/mL; against Staphylococcus aureus (S. aureus ATCC29213, WT) it was 32 µg/mL; in the data set on Staphylococcus aureus (S. aureus M2832, resistance gene mecA), 64 µg/mL; against Staphylococcus aureus (S. aureus M4046, resistance gene mecA), 32 µg/mL. Moreover, the MIC stood at 64 µg/mL with Staphylococcus aureus (S. aureus M6276, resistance gene ermA + lnuA); 32 µg/mL in the data set with Staphylococcus aureus (S. aureus M6784, resistance gene mecA); 32 µg/mL with Escherichia coli (E. coli ABC11, resistance gene ctx-m-2); 64 µg/mL in the data set with Escherichia coli (E. coli Cos15, resistance gene per + tem); 64 µg/mL in the data set on Escherichia coli (E. coli LCA1, resistance gene ctx-m-2 + tem-1); 64 µg/mL in the data set on Escherichia coli (E. coli M5306, resistance gene ctx-m-2 + tem-1 + per-2). The MIC in the data set on Escherichia coli (E. coli M7859, resistance gene cit) was 16 µg/mL; with Escherichia coli (E. coli NEU23, resistance gene oxa-GIII + tem) it was 32 µg/mL; in the data set on E. gallinarum (E. gallinarum M2685, resistance gene vanC1 + vanA) it was 16 µg/mL; in the data set on E. gallinarum (E. gallinarum M2723, resistance gene vanC1 + vanA), 16 µg/mL; against S. haemolyticus, 8 µg/mL; in the data set on E. raffinosus, 8 µg/mL. The MIC came out at 8 µg/mL against S. saprophyticus; 16 µg/mL with A. baumanii (A. baumanii FAV-1, resistance gene per + oxa-51 + oxa-58); 32 µg/mL in the data set on A. baumanii (A. baumanii M5179, resistance gene oxa-51); 8 µg/mL in the data set with A. baumanii (A. baumanii M5277, resistance gene per); 8 µg/mL against A. baumanii (A. baumanii M5282, resistance gene oxa-51); 16 µg/mL in the data set with A. baumanii (A. baumanii M5949, resistance gene oxa-23 + oxa-GVI). For the same compound, the MIC amounted to 16 µg/mL in the data set on A. baumanii (A. baumanii M7489, resistance gene oxa-51 + tem); 8 µg/mL with A. baumanii (A. baumanii M7978, resistance gene imp); 32 µg/mL in the data set on A. baumanii (A. baumanii M9665, resistance gene oxa-51); 4 µg/mL against A. baumanii (A. baumanii M13523, resistance gene oxa-51). The “MIC in agar dilution” value is 8 µg/mL in the data set on S. cohnii; 64 µg/mL against E. coli; over 128 µg/mL against S. aureus; 8 µg/mL against S. warnerii; over 128 µg/mL against K. pneumoniae; over 128 µg/mL against P. aeruginosa. The “therapeutic index (antimicrobial potency over the cytotoxicity percentage)” value in the data set on human erythrocytes was “highest therapeutic index values”.
